# According to the supplement of paper PMC10702517:
# ± gives the standard deviation.
# Experiment: chemical recovery from spiked human plasma; higher = better extraction
# Conditions: pooled human plasma
# [1] = extraction method: PES+SPE (3 d PDMS equilibration then HLB SPE)
# [2] = extraction method: SPE only (HLB 96-well)
# [3] = extraction method: SPE only (HLB 96-well), PES comparison experiment
# [4] = extraction method: solvent precipitation (ACN + hexane)
Structure (SMILES),chemical recovery [1] [%],chemical recovery [2] [%],chemical recovery [3] [%],chemical recovery [4] [%]
Cc1cccc(C)c1NC(=O)CS(=O)(=O)O,21.8 ± 8.2,5.38 ± 9.3,38.3 ± 6.6,–
Clc1nc2ccccc2s1,–,–,–,5.44 ± 5.7
"CC(c1ccc(O)cc1)(c1ccc(O)cc1)c1ccc(O)cc1 [1,1,1-Tris(4-hydroxyphenyl)ethane]",59.9 ± 5,43.2 ± 4.1,–,43.3 ± 2.1
"N=C(Nc1ccccc1)Nc1ccccc1 [1,3-Diphenylguanidine]",22.6 ± 3,34.5 ± 2.5,48.7 ± 4.8,59.5 ± 2.6
"Cc1cc2cccc(C)c2cc1C [1,6,7-Trimethylnaphthalene]",–,2.3 ± 4,–,–
"Cn1cnc2c1c(=O)n(CCCC(=O)O)c(=O)n2C [1-(3-carboxypropyl)-3,7-dimethylxanthine]",72.3 ± 13,54.3 ± 10,–,59.8 ± 6.9
CCCCCCCCCCCCS(=O)(=O)O [1-Dodecanesulfonic-acid],–,25.6 ± 3,–,52.1 ± 2.3
CCn1cc[n+](C)c1 [1-Ethyl-3-methyl-imidazolium],–,0.856 ± 0.42,–,–
Cc1cccc2cc3ccccc3cc12 [1-Methylanthracene],–,4.65 ± 1.1,–,–
Cc1cccc2ccccc12 [1-Methylnaphthalene],–,2.62 ± 2,–,–
"O=C(c1ccc(O)cc1O)c1ccc(O)cc1O [2,2',4,4'-Tetrahydroxybenzophenone]",50 ± 4.4,51.4 ± 4.7,–,–
"Oc1ccccc1-c1ccccc1O [2,2'-Dihydroxybiphenyl]",46.1 ± 1.6,43.3 ± 2.8,–,–
"CCc1cc(Cc2cc(CC)cc(C(C)(C)C)c2O)c(O)c(C(C)(C)C)c1 [2,2'-Methylenebis(ethyl-6-tert-butylphenol)]",–,3.63 ± 3.5,–,64.9 ± 8.7
"Nc1ccc(Cc2ccc(N)c(Cl)c2)cc1Cl [2,2'-dichloro-4,4'-methylenedianiline]",28.7 ± 6.4,47 ± 13,–,71.3 ± 5.2
"Cc1c(Br)c(Br)c(C)c(Br)c1Br [2,3,5,6-Tetrabromo-p-xylene]",83.9 ± 17,17 ± 6.2,–,103 ± 16
"Cc1ccc(C)c(O)c1C [2,3,6-Trimethylphenol]",–,0.62 ± 1.1,–,–
"Cc1cc2ccccc2cc1C [2,3-Dimethylnaphthalene]",–,0.0627 ± 0.11,–,–
"C[N+](C)(C)CC1CO1 (configuration not stated) [2,3-Epoxypropyltrimethylammonium]",0.728 ± 0.46,0.76 ± 0.94,–,–
"Oc1c(Br)cc(Br)cc1Br [2,4,6-Tribromophenol]",46.9 ± 0.63,35 ± 8.7,–,55.2 ± 4.1
"O=C(O)CCCOc1ccc(Cl)cc1Cl [2,4-DB]",66.6 ± 7.5,50.7 ± 2.8,–,61.5 ± 6
"O=C(O)COc1ccc(Cl)cc1Cl [2,4-Dichlorophenoxyacetic acid]",–,–,56.3 ± 5.5,73.2 ± 6.1
"NC(=O)c1c(Cl)cccc1Cl [2,6-Dichlorobenzamide]",–,63.3 ± 4.5,–,–
"Cc1ccc2cc(C)ccc2c1 [2,6-Dimethylnaphthalene]",–,0.083 ± 0.072,–,–
"Cc1cccc(C)c1N [2,6-Xylidine]",–,7.08 ± 5,–,48 ± 3.5

Structure (SMILES),chemical recovery [1] [%],chemical recovery [2] [%],chemical recovery [3] [%],chemical recovery [4] [%]
"O=S(=O)(O)c1ccc2ccc(S(=O)(=O)O)cc2c1 [2,7-Naphthalenedisulfonic acid]",–,60.6 ± 17,–,72.8 ± 11
COCCOCCOCCO [2-(2-(2-Methoxyethoxy)ethoxy)ethanol],7.13 ± 2.3,6.88 ± 5.6,–,–
N#CSCSc1nc2ccccc2s1 [2-(Thiocyanomethylthio)benzothiazole],–,44.1 ± 2.3,–,18.4 ± 10
"Cn1c(N)nc2ncc(-c3ccccc3)cc21 [2-Amino-1-methyl-6-phenylimidazo[4,5-b]pyridine (PhIP)]",38.9 ± 2.9,39.3 ± 2.8,47 ± 5.8,72.4 ± 2.8
"Cn1c(N)nc2ncc(-c3ccccc3)cc21 [2-Amino-1-methyl-6-phenylimidazo[4,5-b]pyridine-(PhIP)]",49 ± 2.1,45.2 ± 2.2,–,70.9 ± 3.6
"Cc1cnc2ccc3c(nc(N)n3C)c2n1 [2-Amino-3,8-dimethylimidazo-[4,5-f]quinoxaline (MeIQx)]",48.7 ± 6,49.1 ± 2.6,–,72.4 ± 3.3
"Cn1c(N)nc2c3cccnc3ccc21 [2-Amino-3-methyl-imidazo[4,5-f]quinoline (IQ)]",–,11.1 ± 1.8,–,–
"Cn1c(N)nc2c3cccnc3ccc21 [2-Amino-3-methyl-imidazo[4,5-f]quinoline-(IQ)]",27 ± 5.9,13.8 ± 2.6,–,73.4 ± 2.7
"Cc1cc(C)nc(N)n1 [2-Amino-4,6-dimethylpyrimidine]",–,2.25 ± 2.4,–,–
"Nc1ccc2c(n1)[nH]c1ccccc12 [2-Amino-9H-pyrido[2,3-b]indole-(AalphaC)]",17.4 ± 2.8,32.5 ± 2.4,–,62.4 ± 5.3
CC(Cl)CN(C)C (configuration not stated) [2-Chloropropyldimethylamine],0.712 ± 0.094,1.1 ± 0.73,–,–
CCCCC(CC)COP(=O)(Oc1ccccc1)Oc1ccccc1 (configuration not stated) [2-Ethylhexyldiphenylphosphate],–,38.9 ± 8.9,–,–
NNc1ccccn1 [2-Hydrazinopyridine],0.622 ± 0.11,9.35 ± 5,–,–
CCNc1nc(NC(C)C)[nH]c(=O)n1 [2-Hydroxyatrazine],36.1 ± 4.4,29.1 ± 3.5,44.3 ± 8.2,76.5 ± 3.2
Oc1ccc2c(c1)[nH]c1ccccc12 [2-Hydroxycarbazole],52.1 ± 4.4,40.6 ± 5,–,–
Cc1ccc2cc3ccccc3cc2c1 [2-Methylanthracene],51.5 ± 4.5,3.56 ± 0.86,–,–
Cc1ccc2ccccc2c1 [2-Methylnaphthalene],–,2.91 ± 1.5,–,–
Nc1ccccc1[N+](=O)[O-] [2-Nitroaniline],–,25.1 ± 5.2,–,–
O=C1Cc2ccccc2N1 [2-Oxindole],–,–,–,39.1 ± 5.5
"Cc1cc(-c2ccc(N)c(C)c2)ccc1N [3,3'-Dimethylbenzidine]",–,37.1 ± 6.7,20.3 ± 2.9,61.7 ± 6.9
"Oc1cc(Cl)c(Cl)c(Cl)c1 [3,4,5-Trichlorophenol]",58.9 ± 7.8,45 ± 3.1,–,70.1 ± 3.9
"Oc1ccc(Cl)cc1O [3,4-Dihydroxy-chlorobenzene]",5.54 ± 1.6,39.4 ± 4.7,–,–
"CC(=O)c1cc(C(C)(C)C)c(O)c(C(C)(C)C)c1 [3,5-Di-tert-butyl-4'-hydroxyacetophenone]",–,20.1 ± 4.9,–,42.1 ± 2.7
Cc1ccc(N)cc1Cl [3-Chloro-4-methylaniline],56.7 ± 3.6,45.3 ± 2.8,–,76.7 ± 4.1

# Continued, values first:
chemical recovery [1] [%],chemical recovery [2] [%],chemical recovery [3] [%],chemical recovery [4] [%],Structure (SMILES)
–,9.27 ± 2.4,–,33.1 ± 7.1,"COc1ccc(C(c2ccc(OC)cc2)C(Cl)Cl)cc1 [1,1-Dichloro-2,2-bis(4-methoxyphenyl)ethan]"
7.12 ± 0.96,10.7 ± 1.4,1.19 ± 2.4,5.44 ± 4.6,"O=c1[nH]sc2ccccc12 [1,2-Benzisothiazolinone]"
20.9 ± 2.6,34.2 ± 2.8,–,64.5 ± 1.7,"Cc1ccccc1NC(=N)Nc1ccccc1C [1,3-Di-o-tolylguanidine]"
65.9 ± 7.5,46.9 ± 3.4,–,84.4 ± 7.3,"O=C(Nc1ccccc1)Nc1ccccc1 [1,3-Diphenylurea]"
15 ± 1.5,52.7 ± 6.3,–,–,"Nc1ccc2nc3c(N)cccc3nc2c1 [1,7-Diaminophenazine]"
70.3 ± 10,57.4 ± 16,–,79.9 ± 4,O=C(Nc1ccccc1)NC1CCCCC1 [1-Cyclohexyl-3-phenylurea]
42 ± 5.2,31.5 ± 2.9,–,61.5 ± 1.9,CCCCCCCCCCS(=O)(=O)O [1-Decanesulfonic-acid]
31.6 ± 3.8,30.6 ± 4.2,–,74.2 ± 8.3,CCCCCCS(=O)(=O)O [1-Hexanesulfonic-acid]
–,3.46 ± 0.94,–,34 ± 4,Cc1ccc2ccc3cccc4ccc1c2c34 [1-Methylpyrene]
–,–,35.9 ± 5.8,–,O=S(=O)(O)c1cccc2c(O)cccc12 [1-Naphthol-5-sulfonic acid]
–,7.83 ± 3.9,–,–,"Cc1cc(Cc2cc(C)cc(C(C)(C)C)c2O)c(O)c(C(C)(C)C)c1 [2,2'-Methylenebis(6-tert-butyl-p-cresol)]"
53.8 ± 3.7,42.1 ± 2.9,–,59.2 ± 3.6,"O=C(c1ccccc1)c1ccc(O)cc1O [2,4-Dihydroxybenzophenone]"
–,–,16.8 ± 6.9,–,"CC(C)c1ccc2cc(C(C)C)ccc2c1 [2,6-Diisopropylnaphthalene]"
11.8 ± 0.64,38.5 ± 14,–,53.2 ± 6.7,"Nc1ccc2nc3ccc(N)cc3nc2c1 [2,8-Diaminophenazine]"
59.8 ± 2.4,0.402 ± 0.15,–,23.4 ± 1,c1ccc2cc(-c3cc4ccccc4s3)ccc2c1 [2-(2-Naphthalenyl)benzothiophene]
0.697 ± 0.13,2.37 ± 1.9,–,72.2 ± 2.7,O=S(=O)(O)CCNC1CCCCC1 [2-(Cyclohexylamino)-ethansulfonic-acid]
–,–,1.9 ± 2.2,–,NCCN1CCNCC1 [2-(Piperazin-1-yl)ethanamine]
–,–,80.9 ± 10,–,CC(=O)c1ccc2ccccc2c1 [2-Acetonaphthone]
–,18.8 ± 4.5,–,68.3 ± 4.5,Nc1nc2ccccc2[nH]1 [2-Aminobenzimidazole]
45.2 ± 5.9,34.6 ± 4,44.3 ± 8.5,77.2 ± 3.2,Cc1cc(=O)nc(C(C)C)[nH]1 [2-Isopropyl-6-methyl-pyrimidin-4-ol]
–,–,–,139 ± 8.9,c1ccc2sc(SN3CCOCC3)nc2c1 [2-Morpholinothiobenzothiazole]
–,–,–,56.3 ± 2.7,"N[C@@H](Cc1cc(I)c(Oc2ccc(O)c(I)c2)c(I)c1)C(=O)O [3,3',5-Triiodo-L-thyronine]"
36.5 ± 13,2.62 ± 0.48,–,71.5 ± 5,"Cc1ccc2ccc3ccc(C)cc3c2c1 [3,6-dimethylphenanthrene]"
28.9 ± 9.2,35.4 ± 2.2,–,61.2 ± 1.1,"CN(C)C(=O)NC1CCCCC1 [3-Cyclohexyl-1,1-dimethylurea]"
